Reference: patent publication US20100248224A1, “DNA FRAGMENTATION ASSAY” (priority 2006, published 2010)

Columns and labels:
Assay type in all cases: cell-based, human
HL-60 cells [1] = assay: DMSO tolerance in HL-60 cells, PicoGreen fluorescent assay; conditions: 20 hr incubation, 0.3 million cells/mL, FIG. 11
Method: HL-60 cells in mid-log phase (0.3 million cells/mL) were treated with different doses of DMSO for 20 hours. An equal volume of the lysis buffer (20 mM Tris-HCl (pH 8.0), 20 mM EDTA, 0.2% Tween-20 and 5 ug/ml. RNase) was added into the total cell culture. The cell lysate was centrifuged at 2000×g for 20 min. The top portion of the supernatant was withdrawn and DNA content was quantitated using the PicoGreen fluorescent assay.

HL-60 cells [2] = assay: Inhibition of camptothecin-induced DNA fragmentation in HL-60 cells, PicoGreen detection; conditions: 20 hours, FIG. 6
Description: Zinc has been known to inhibit apoptosis induced by both chemical and death-receptor agonists. […] DNA fragments released from cells were quantified with PicoGreen reagent as described above. For samples with camptothecin, without zinc chloride or at low concentrations, fluorescence signal was more than 3 fold of that from samples with DMSO treatment.

HL-60 cells [3] = assay: ELISA detection of DNA fragmentation in HL-60 cell lysates (Cell Death Detection ELISA kit); conditions: HL-60 cells 0.3 million cells/ml, treated 20 hours, FIG. 5, read-out: EC50 value, DNA fragmentation determined by ELISA
HL-60 cells [4] = assay: PicoGreen detection of DNA fragmentation in HL-60 cell lysates; conditions: for EC50: HL-60 cells 0.3 million cells/ml, treated 20 hours, FIG. 3, read-out: EC50 value, DNA fragmentation detected with PicoGreen
Method: An equal volume of the lysis buffer (20 mM Tris-HCl (pH 8.0), 20 mM EDTA, 0.2% Tween-20 and 5 ug/mL RNase) was added into the total cell culture. […] The dose response curve of camptothecin using PicoGreen detection (FIG. 3) was compared to propidium iodide detection (FIG. 4).

C[S+](C)[O-] [DMSO, dimethyl sulfoxide] was tested, and the “DMSO concentration tolerated by HL-60 cells” value (HL-60 cells [1]) was “up to 1%”.

With [Cl-].[Cl-].[Zn+2] [zinc chloride] the “magnitude of camptothecin-induced DNA fragmentation (level of fluorescent signal)” value (HL-60 cells [2]; zinc chloride 100 uM or higher, with 3.2 μM camptothecin) was “decreased to the same level as samples with DMSO treatment only”.

Neomycin was tested, and the EC50 (HL-60 cells [3]) was > 100 µM and the EC50 (HL-60 cells [4]) was > 100 µM.

With CC[C@@]1(O)C(=O)OCc2c1cc1n(c2=O)Cc2cc3ccccc3nc2-1 [camptothecin, Camptothecin] the EC50 (HL-60 cells [3]; Homo sapiens) was 1.11 µM, the PicoGreen fluorescence intensity (HL-60 cells [4]; 3.2 uM for 5.5 hours vs 0.1% DMSO, 0.4 million cells/mL, FIG. 1) was “increased” and the “DNA fragmentation, time course” value (HL-60 cells [4]; 3.2 uM, at 4 hours of treatment, FIG. 8) was “significant increase in DNA fragmentation”. For the same molecule, the EC50 (HL-60 cells [4]; Homo sapiens) was 1.48 µM and the “fluorescence signal relative to samples with DMSO treatment” value (HL-60 cells [2]; 3.2 μM camptothecin, without zinc chloride or at low concentrations) was “more than 3 fold”.
